Measurements as given in patent publication US10160948B2, “Pluripotent embryonic-like stem cells, compositions, methods and uses thereof” (ABT HOLDING COMPANY, priority 1999, dated 2018).

Key:
pluripotent stem cells = assay: Proliferation and phenotypic responses to bioactive factors: pluripotent cells; format: cell-based
Excerpt: Having access to mixed populations of progenitor stem cells, progenitor stem cell clones, and pluripotent stem cell clones permits one to address the influence of various bioactive factors (e.g. recombinant growth factors, purified compounds, and novel inductive factors) on the growth characteristics and phenotypic expression of these stem cells.
Cryopreserved cells are thawed and plated in MSC-1 at 5, 10, or 20×10^3 cells per well of gelatinized 24-well plates following the standard protocol. Twenty-four hours after initial plating the medium is changed to testing medium (TM) 1 to 6 (TM-1, TM-2, TM-3, TM-4, TM-5, or TM-6). TM-1 to TM-4 consist of Ultraculture (cat. no. 12-725B, lot. nos. OMO455 [TM-1], 1M1724 [TM-2], 2M0420 [TM-3], or 2M0274 [TM-4], Bio-Whittaker, Walkersville, Md.), medium (EMEM or Opti-MEM 0.01 mM β-mercaptoethanol), and 1% (v/v) antibiotic-antimycotic, pH 7.4. TM-5 consists of 98% (v/v) medium, 1% (v/v) HS, and 1% (v/v) antibiotic-antimycotic, pH 7.4. TM-6 consists of 98.5% (v/v) medium, 0.5% (v/v) HS, and 1% (v/v) antibiotic-antimycotic, pH 7.4. […] Four testing media (TM#'s 1-4), each containing various concentrations of Ultraculture, were used as. […] The four Ultraculture-based testing media were: TM-1=15% (v/v) Ultraculture (Lot no. OMO455): 84% (v/v) medium: 1% (v/v) antibiotics; TM-2=15% (v/v) Ultraculture (Lot no. 1M1724): 84% (v/v) medium: 1% (v/v) antibiotics; TM-3=50% (v/v) Ultraculture (Lot no. 2M0420): 49% (v/v) medium: 1% (v/v) antibiotics; and TM-4=75% (v/v) Ultraculture (Lot no. 2M0274): 24% (v/v) medium: 1% (v/v) antibiotics. Pre-incubation for 24 hr in testing medium alone is used to wash out any potential synergistic components in the MSC-1 medium. Twenty-four hours later the testing medium is changed to one of the following. For controls, TM-1 to TM-6 alone is used. To identify clones of progenitor cells, the medium is replaced with TM-1 to TM-6 containing 2 μg/ml insulin (Sigma), an agent that accelerates the appearance of phenotypic expression markers in progenitor cells (TABLE 12). To identify clones of pluripotent cells, the medium is replaced with TM-1 to TM-6 containing 10^−10 to 10^−6 M dexamethasone (Sigma), a general non-specific lineage-inductive agent (TABLE 13). Control and treated cultures are propagated for an additional 30-45 days with medium changes every other day. Four culture wells are used per concentration per experiment. During the 0-45 day time period the cultures are examined subjectively for changes in morphological characteristics on a daily basis. Alterations in phenotypic expression are correlated with the days of treatment and associated insulin or dexamethasone concentrations. The experiment is then repeated utilizing these parameters to confirm objectively the phenotypic expression markers using established histological, functional/histochemical, ELICA/flow cytometry, and molecular assays (TABLE 13).

[1] = tested on: phenotypic expression markers (ectodermal, mesodermal, endodermal, embryonic); assay: Immunochemical and histochemical phenotypic analysis of human cell lines incubated with serum + insulin (I) + dexamethasone (D); format: cell-based
Description: Additional immunochemical and histochemical studies were performed with a series of human cell lines. Human cells CF-NHDF2 (derived from person dermis) were propogated to various doubling numbers (cell doublings of between 12 and 47), and examined, as above, for multiple induced mesodermal, ectodermal, endodermal and embryonic lineages. Human cells CM-SkM2 and CF-SkM2, were similarly examined, after propogation to 12 cell doublings. TABLES 7-9 provides the results of examination of the human cells CF-NHDF2 at progressive cell doublings, under different growth conditions. TABLE 10 provides the results of examination of the human cells CM-SkM2, and CF-SkM2 at progressive cell doublings, under different growth conditions.
Phenotypic Analysis. The cryopreserved cells were thawed and seeded at 1×10^3 cells per well of 1% gelatinized 96-well plates (Corning, Corning, N.Y.).15,16 The cell lines were incubated with CM only (non-induced) or CM+insulin and/or dexamethasone in a comparison/contrast analysis system to ascertain induced phenotypic expression.7,15 In this assay, insulin accelerates phenotypic expression of lineage-committed progenitor cells but has no effect on the induction of lineage-commitment and subsequent phenotypic expression in pluripotent cells.
Cells were cultured for 30-56 days in CM, CM+[…] insulin, or CM+10^−6M Dexamethasone+/−insulin+1%, 5%, or 10% horse serum. […]

Substance: insulin
- Proliferation, Pluripotent: number of times the agent increased the DNA content per well versus its respective control (pluripotent stem cells): 1 times
- activity on pluripotent and progenitor stem cells, in words (pluripotent stem cells; pluripotent and progenitor cells): stimulated lineage-progression in all progenitor cells, but had no measurable effect on pluripotent cells
- Phenotypic Expression, Pluripotent (pluripotent stem cells; presence and approximate distribution of differentiated phenotypes within the culture wells): 0
- effect on morphology and antigen staining of NHDF2 and PAL3 cells [1]: No change in morphology or change in antigen staining
